In assay [1] the target is T1, human type II PLA₂ (Homo sapiens, UniProt P14555).
T1 construct: made in house; host or cells: Sf9 insect cells, baculovirus (AcNPV), vector pAcTJI1; purified from culture supernatant
T1 sequence (P14555 21-144): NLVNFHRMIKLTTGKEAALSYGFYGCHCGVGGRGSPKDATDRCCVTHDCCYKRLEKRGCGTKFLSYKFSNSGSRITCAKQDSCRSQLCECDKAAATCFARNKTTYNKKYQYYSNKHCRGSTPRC
Kind of assay: Inhibition of binding between heparin and human II-type PLA₂ (heparin-bound plate, biotinated PLA₂). The protocol:
500 µg of human type II (non-pancreatic) purified in Reference Example 1 was reacted with 2 ml of a solution of 5 mM sulfosuccinyl 6-(biotinamide hexose) in 0.1M NaHCO₃ at a room temperature for one hour, and the product was purified by a heparin Sepharose column to obtain biotinated human type II PLA₂.
50 µl of a phosphate buffered saline (PBS) containing 50 µg/ml poly-L-lysine was added to each well of a 96-well ELISA plate, and after incubation at room temperature for an hour, each well was twice washed with PBS, 50 µl of PBS solution containing 20 µg/ml heparin was added to each well, and a reaction was further carried out at a room temperature for an hour. Each well was twice washed with PBS, 200 µl of PBS solution containing 30 mg/ml bovine serum albumin (BSA) was added to each well, and after reaction at 37°C for an hour, the plate was stored at 4°C.
To each well of a peparin-bound plate prepared in Reference Example 3, 50 µl of a solution containing a peptide obtained in Examples 1 to 10 was added. After incubating at room temperature for 45 minutes, 50 µg/ml biotinated human II-type PLA₂ obtained in Example 2 was added thereon, and reaction was further carried out at room temperature for an hour. Each well was washed three times with PBS containing 0.05% Tween 20, 50 µl of a 3% BSA/PBS solution containing alkaline phosphatase-conjugated streptoavidin (Taga, ×2000 dilution) was added thereon, and a reaction was carried out at a room temperature for an hour. Each well was washed three times with PBS containing 0.05% Tween 20, 100 µl of a 1 mM p-nitrophenylphosphate/1M ethanolamine aqueous solution (pH 9.8) was added thereon, and a reaction was carried out at room temperature for an hour. Absorption of reaction mixture was measured at 405 nm using a microplate reader (Molecular Device Inc). A result is shown in Fig. 9, and IC₅₀ (µM) was also obtained.

Assay [2] concerns the target T1, human type II PLA₂. In words: Enzyme inhibition of human type II PLA₂ in the presence of heparin, radiolabeled synthetic phospholipid (method of Dole). In kind it is biochemical.

Positions of bridges follow the written chain, without caps; N, C: chain ends. Residues, ends and D or L forms follow the SMILES beside them. *: point of attachment. Mob = COc1ccc(C*)cc1

As to `COc1ccc(CSC[C@H](NC(=O)CNC(=O)[C@H](CCCNC(=N)N)NC(=O)[C@@H](N)CCCCN)C(=O)NCC(=O)N[C@H](C(=O)N[C@@H](CCCCN)C(=O)N[C@@H](Cc2ccccc2)C(=O)N[C@@H](CC(C)C)C(=O)N[C@@H](CO)C(=O)N[C@@H](Cc2ccc(O)cc2)C(=O)N[C@@H](CCCCN)C(=O)N[C@@H](Cc2ccccc2)C(=O)N[C@@H](CO)C(=O)N[C@@H](CS)C(=O)O)[C@@H](C)O)cc1` [Peptide (1)] (H-KRGC(Mob)GTKFLSYKFSC-OH), the IC50 on human type II PLA₂ [1] amounted to 1400 nM.

`CC(C)C[C@@H]1NC(=O)[C@H](Cc2ccccc2)NC(=O)[C@H](CCCCN)NC(=O)[C@H]([C@@H](C)O)NC(=O)CNC(=O)[C@@H](NC(=O)CNC(=O)[C@H](CCCNC(=N)N)NC(=O)[C@@H](N)CCCCN)CSSC[C@@H](C(=O)O)NC(=O)[C@H](CO)NC(=O)[C@H](Cc2ccccc2)NC(=O)[C@H](CCCCN)NC(=O)[C@H](Cc2ccc(O)cc2)NC(=O)[C@H](CO)NC1=O` [Peptide (20)] (H-KRGCGTKFLSYKFSC-OH; disulfide 4-15 (inferred); N-terminus and C-terminus assumed): on human type II PLA₂ [2] (in the presence of heparin), the “inhibitory activity to type II PLA₂ enzyme” value was “inhibitory activity”. Besides, the inhibition at 1 µg/mL at human type II PLA₂ [2] (peptide 1 µg/ml, heparin 50 µg/ml, PLA₂ enzyme 200 ng/ml) turned out to be 10%. The remaining activity at 1 µg/mL at human type II PLA₂ [2] (peptide 1 µg/ml, heparin 50 µg/ml, PLA₂ enzyme 200 ng/ml, read-out: PLA₂enzyme activity (%)) was 90%. In addition, the inhibition at 5 µg/mL on human type II PLA₂ [2] (peptide 5 µg/ml, heparin 50 µg/ml, PLA₂ enzyme 200 ng/ml) worked out at 59%. Further, at human type II PLA₂ [2] (peptide 5 µg/ml, heparin 50 µg/ml, PLA₂ enzyme 200 ng/ml, read-out: PLA₂enzyme activity (%)), the remaining activity at 5 µg/mL was 41%. The inhibition at 10 µg/mL at human type II PLA₂ [2] (peptide 10 µg/ml, heparin 50 µg/ml, PLA₂ enzyme 200 ng/ml) was 72%. In addition, the remaining activity at 10 µg/mL at human type II PLA₂ [2] (peptide 10 µg/ml, heparin 50 µg/ml, PLA₂ enzyme 200 ng/ml, read-out: PLA₂enzyme activity (%)) came to 28%. On human type II PLA₂ [2] (peptide 50 µg/ml, heparin 50 µg/ml, PLA₂ enzyme 200 ng/ml), the inhibition at 50 µg/mL turned out to be 82%. Moreover, the remaining activity at 50 µg/mL on human type II PLA₂ [2] (peptide 50 µg/ml, heparin 50 µg/ml, PLA₂ enzyme 200 ng/ml, read-out: PLA₂enzyme activity (%)) is 18%. The inhibition at 100 µg/mL on human type II PLA₂ [2] (peptide 100 µg/ml, heparin 50 µg/ml, PLA₂ enzyme 200 ng/ml) is 90%. Besides, the remaining activity at 100 µg/mL on human type II PLA₂ [2] (peptide 100 µg/ml, heparin 50 µg/ml, PLA₂ enzyme 200 ng/ml, read-out: PLA₂enzyme activity (%)) was found to be 10%. The “inhibitory activity to binding of human type II PLA₂ to heparin” value at human type II PLA₂ [1] is listed as “strong inhibitory activity”.

Take `COc1ccc(CSC[C@H](NC(=O)CNC(=O)[C@H](CCCNC(=N)N)NC(=O)[C@@H](N)CCCCN)C(=O)NCC(=O)N[C@H](C(=O)N[C@@H](CCCCN)C(=O)N[C@@H](Cc2ccccc2)C(=O)N[C@@H](CC(C)C)C(=O)N[C@@H](CO)C(=O)N[C@@H](Cc2ccc(O)cc2)C(=O)N[C@@H](CCCCN)C(=O)N[C@@H](Cc2ccccc2)C(=O)N[C@@H](CO)C(=O)N[C@@H](CS)C(=O)O)[C@@H](C)O)cc1` [Peptide (6)] (H-KRGC(Mob)GTKFLSYKFSC-OH; N-terminus and C-terminus assumed): at human type II PLA₂ [1], the “inhibitory activity to binding of human type II PLA₂ to heparin” value is “strong inhibitory activity”.

At human type II PLA₂ [1], `COc1ccc(CSC[C@H](NC(=O)[C@H](CO)NC(=O)[C@H](Cc2ccccc2)NC(=O)[C@H](CCCCN)NC(=O)[C@H](Cc2ccc(O)cc2)NC(=O)[C@H](CO)NC(=O)[C@H](CC(C)C)NC(=O)[C@H](Cc2ccccc2)NC(=O)[C@H](CCCCN)NC(=O)[C@@H](NC(=O)CNC(=O)[C@H](CS)NC(=O)CNC(=O)[C@H](CCCNC(=N)N)NC(=O)[C@@H](N)CCCCN)[C@@H](C)O)C(=O)O)cc1` [Peptide (3)] (H-KRGCGTKFLSYKFSC(Mob)-OH) had a half-maximal inhibitory concentration (IC50) of 2700 nM.

As usually defined, the IC50 is the concentration needed to halve the response being measured. High values mean weaker potency in that assay, low ones greater potency in that assay. As usually defined, the inhibition is the drop in the measured response relative to a control, in per cent.
